Here are results for 13 compounds from US4609736A, “Rhodanines useful as a therapeutic agent for diabetic complications” (Kaken Pharmaceutical Co., Ltd., priority 1983, dated 1986).

Read-outs that look alike come from different tables or passages of the source.

Data set [1] relates to thrombin-induced aggregation of washed rabbit platelets. The experiment in a line: Platelet aggregation inhibiting activity (thrombin-induced aggregation of washed rabbit platelets). It is filed as cell-based, rabbit (albino, white local breed). Particulars: for IC50: Oryctolagus cuniculus, Platelet, Table 2; for platelet aggregation inhibiting activity relative to Dipyridamole (Persantine): times that of Dipyridamole. On the procedure:
Blood samples were collected from the auricular blood vessel of albino rabbits (white local breed), and washed platelets were prepared therefrom by the method of Baenziger et al. [N. L. Baenziger and P. W. Majerus, Methods in Enzymology, 31, 149 to 155 (1974)]. The platelets were suspended in a 15 mM Tris-hydrochloric acid buffer in a final concentration of 6×10^8 cells/ml (Tris: tris(hydroxymethyl)aminomethane). Each test compound was added thereto and incubation was carried out at 37° C. for 2 minutes. Then, the platelets were stimulated by addition of thrombin (final concentration 0.2 unit/ml; made by Mochida Pharmaceutical Co.) and the aggregation inhibiting activity was estimated by observation of the aggregation reaction using an aggregometer (made by Briston Co.).
The results obtained are shown in Table 2 in terms of IC50 (50% inhibition concentration in M).

The target in another data set is T1, aldose reductase (Rattus norvegicus, UniProt P07943).
T1 construct: the supernatant was used as the crude enzyme solution; from tissue; host or cells: eye lens of male Wistar rats, 10,000 g supernatant of the homogenate
The experiment in a line: Aldose reductase inhibiting activity. It is filed as biochemical, rat (Wistar strain male, eye lens). The conditions noted are these: rat lens crude enzyme; DL-glyceraldehyde 10 mM, NADPH 0.104 mM, pH 6.2; Table 3; read-out: IC50 (50% inhibition concentration), aldose reductase. On the procedure: Thus, Wistar strain male rats were sacrificed by decapitation, the lenses were excised and homogenized with a 0.1M phosphate buffer [pH 6.8; containing 1 mM of mercaptoethanol and 1 mM of nicotinamide-adenine dinucleotide phosphate (NADP)]. The homogenate was then centrifuged at 10,000 g for 15 minutes and the supernatant was used as the crude enzyme solution.
To this buffer solution, there was added 15 μl of each of solutions of each test compound in varied concentrations, followed by addition of 25 μl of the crude enzyme solution prepared in advance, to thereby initiate the reaction.

Data set [2] is described as follows: Acute toxicity in mice (oral). The conditions noted are these: mouse, in vivo, oral gavage in 10% gum arabic, 2 weeks.
Where [3] appears, read: 2 min, washed rabbit platelets 6×10^8 cells/ml, thrombin 0.2 unit/ml, 37° C., 2 minutes incubation, read-out: IC50 (50% inhibition concentration), platelet aggregation.
Where [4] appears, read: read-out: concentration that inhibited the thrombin-induced aggregation of washed rabbit platelets by 50%.

Turning to `CC(C)(C)C=C1SC(=S)N(CC(=O)O)C1=O` [compound 3, 3-Carboxymethyl-5-(2,2-dimethylpropylidene)rhodanine], the IC50 in data set [1] (setting [3]) was above 300 µM; at aldose reductase it was 0.1 µM.
For the compound `CC(C)=CCCC(C)=CC=C1SC(=S)N(CC(=O)O)C1=O` [compound 12, 3-Carboxymethyl-5-(3,7-dimethyl-2,6-octadienylidene)rhodanine], the IC50 in data set [1] (setting [3]) is above 300 µM. The same compound showed an LD50 at 336 h in data set [2] of 3500 to 5000 mg/kg.
As for `CCC=C1SC(=S)N(CC(=O)O)C1=O` [Compound No. 1, 3-Carboxymethyl-5-propylidenerhodanine], the figures for the IC50 (in data set [1] (setting [3]); on aldose reductase) were above 300 µM and 0.2 µM, respectively.
For `O=C(O)CN1C(=O)C(=CCCCCl)SC1=S` [compound 2, 3-Carboxymethyl-5-(4-chlorobutylidene)rhodanine], the IC50 was above 300 µM in data set [1] (setting [3]) and 0.14 µM on aldose reductase.
For `O=C(O)CN1C(=O)C(=CC=CCCl)SC1=S` [Compound No. 8, 3-Carboxymethyl-5-(4-chloro-2-butenylidene)rhodanine], in data set [1], the “platelet aggregation inhibiting activity (in words)” value was “noticeably strong platelet aggregation inhibiting activity”. In addition, the IC50 in data set [1] (setting [3]) was 20 µM; in data set [1] (setting [4]), 20 to 40 µM; at aldose reductase, 0.13 µM. Further, the “platelet aggregation inhibiting activity relative to Dipyridamole (Persantine)” value in data set [1] is reported as “about 10 times”.
Regarding `CCCC=CC=C1SC(=S)N(CC(=O)O)C1=O` [Compound No. 10, 3-Carboxymethyl-5-(2-hexenylidene)rhodanine], in data set [1], the “platelet aggregation inhibiting activity (in words)” value is reported as “noticeably strong platelet aggregation inhibiting activity”. The IC50 in data set [1] (setting [3]) was 30 µM; in data set [1] (setting [4]) it was 20 to 40 µM; at aldose reductase it was 0.04 µM. Besides, the “platelet aggregation inhibiting activity relative to Dipyridamole (Persantine)” value in data set [1] is reported as “about 10 times”. The compound further showed an LD50 at 336 h in data set [2] of 3500 to 5000 mg/kg.
As for `CC=CC=C1SC(=S)N(CC(=O)O)C1=O` [Compound No. 7, 3-Carboxymethyl-5-(2-butenylidene)rhodanine], the “platelet aggregation inhibiting activity (in words)” value in data set [1] was “noticeably strong platelet aggregation inhibiting activity”. Moreover, the IC50 in data set [1] (setting [3]) was 20 µM; in data set [1] (setting [4]) it was 20 to 40 µM; at aldose reductase, 0.07 µM. The “platelet aggregation inhibiting activity relative to Dipyridamole (Persantine)” value in data set [1] is “about 10 times”. In data set [2], the LD50 at 336 h lay within 3500 to 5000 mg/kg.
Consider `CC(C)=CCCC(C)=CCCC(C)=CCCC(C)=CC=C1SC(=S)N(CC(=O)O)C1=O` [Compound No. 13, 3-Carboxymethyl-5-(3,7,11,15-tetramethyl-2,6,10,14-hexadecatetraenylidene)rhodanine], for which the “platelet aggregation inhibiting activity (in words)” value in data set [1] was “noticeably strong platelet aggregation inhibiting activity”. Moreover, the IC50 in data set [1] (setting [3]) was 40 µM; in data set [1] (setting [4]), 20 to 40 µM; on aldose reductase, 0.65 µM. Besides, the “platelet aggregation inhibiting activity relative to Dipyridamole (Persantine)” value in data set [1] is “about 10 times”. In data set [2], this compound showed a 50% lethal dose (LD50) at 336 h of 3500 to 5000 mg/kg.
With `C=CC=C1SC(=S)N(CC(=O)O)C1=O` [Compound No. 6, 3-Carboxymethyl-5-allylidenerhodanine], the “platelet aggregation inhibiting activity (in words)” value in data set [1] was “noticeably strong platelet aggregation inhibiting activity”. Further, the values for the IC50 (in data set [1] (setting [3]); in data set [1] (setting [4]); on aldose reductase) were 30 µM, 20 to 40 µM and 0.75 µM, respectively. Further, the “platelet aggregation inhibiting activity relative to Dipyridamole (Persantine)” value in data set [1] was “about 10 times”.
As for `CC=CC=CC=C1SC(=S)N(CC(=O)O)C1=O` [Compound No. 11, 3-Carboxymethyl-5-(2,4-hexadienylidene)rhodanine], the “platelet aggregation inhibiting activity (in words)” value in data set [1] is “noticeably strong platelet aggregation inhibiting activity”. Besides, the IC50 in data set [1] (setting [3]) was 20 µM; in data set [1] (setting [4]), 20 to 40 µM; on aldose reductase it was 0.046 µM. Moreover, the “platelet aggregation inhibiting activity relative to Dipyridamole (Persantine)” value in data set [1] is on record as “about 10 times”. This compound returned an LD50 at 336 h in data set [2] of 3500 to 5000 mg/kg.
Consider `CCCCCC=C1SC(=S)N(CC(=O)O)C1=O` [compound 5, 3-Carboxymethyl-5-n-hexylidenerhodanine], for which the IC50 in data set [1] (setting [3]) was above 300 µM; at aldose reductase it was 0.13 µM.
In the same order, the values of `CCCCCCCCCCC=C1SC(=S)N(CC(=O)O)C1=O` [compound 4, 3-Carboxymethyl-5-undecylidenerhodanine] are above 300 µM and 0.3 µM.
In the case of `CC(C)=CC=C1SC(=S)N(CC(=O)O)C1=O` [compound 9, 3-Carboxymethyl-5-(3-methyl-2-butenylidene)rhodanine], the values for the IC50 (in data set [1] (setting [3]); on aldose reductase) were above 400 µM and 0.1 µM, respectively.

As usually defined, the LD50 is the dose at which mortality reaches 50%.
